Source: patent US11331299B2, “Medicinal use of serrulatane diterpenes” (The University of Sydney, priority 2016, dated 2022)
Read-outs that look alike come from different tables or passages of the source.

Tested on: 280 human cancer cell lines
Assay: OncoPanel cell proliferation assay (10-day)
Assay type: cell-based
Settings: Homo sapiens; for GI50: read-out: Cell Count GI50; for IC50: read-out: Cell Count IC50; for EC50: read-out: Cell Count EC50
[1] = SJRH30, SJRH30, Soft Tissue - Sarcoma
[2] = SJSA-1, SJSA1, Soft Tissue - Osteosarcoma
[3] = SK-LMS-1, SK-LMS-1, Soft Tissue - Sarcoma
[4] = SK-MEL3, SK-MEL-3, Skin (Melanoma)
[5] = SK-MEL-1, SK-MEL-1, Skin (Melanoma)
[6] = SK-MEL-28, SK-MEL-28, Skin (Melanoma)
[7] = SK-OV-3, SKOV3, Female GU - Ovary
[8] = SK-UT-1, SK-UT-1, Soft Tissue - Sarcoma
[9] = SW579, SW579, Endocrine - Thyroid
[10] = SW684, SW684, Soft Tissue - Sarcoma

`CC(C)=CCC[C@H](CO)[C@@H]1CC[C@@H](C)c2c1cc(C)c(O)c2O` [Compound 1, 7,8,18-trihydroxyserrulat-14-ene] gave a GI50 (SH-4, Skin (Melanoma)) of 1940 nM, an IC50 (SH-4, Skin (Melanoma)) of 1950 nM and an EC50 (SHP77, SHP-77, Lung - SCLC) of 890 nM. It also gave a GI50 (SHP77, SHP-77, Lung - SCLC) of 890 nM, an IC50 (SHP77, SHP-77, Lung - SCLC) of 900 nM and an EC50 [1] of 1420 nM. The GI50 [1] was 1410 nM, the IC50 [1] was 1420 nM and the EC50 [2] was 1410 nM. The GI50 [2] was 1410 nM, the IC50 [2] was 1410 nM and the EC50 (SK-BR-3, SK-BR-3, Breast) was 1790 nM. The GI50 (SK-BR-3, SK-BR-3, Breast) was 1760 nM, the IC50 (SK-BR-3, SK-BR-3, Breast) was 1800 nM and the EC50 [3] was 1570 nM. For the same compound, the GI50 [3] was 1560 nM, the IC50 [3] was 1570 nM and the EC50 [4] was 4370 nM. The GI50 [4] was 4280 nM, the IC50 [4] was 4380 nM and the EC50 [5] was 4290 nM. It also gave a GI50 [5] of 4110 nM, an IC50 [5] of 4410 nM and an EC50 [6] of 1540 nM. The GI50 [6] was 1530 nM, the IC50 [6] was 1540 nM and the EC50 (SK-MES-1, SKMES1, Lung - NSCLC) was 1060 nM. The GI50 (SK-MES-1, SKMES1, Lung - NSCLC) was 1060 nM, the IC50 (SK-MES-1, SKMES1, Lung - NSCLC) was 1060 nM and the EC50 (SK-N-AS, CNS - Neuroblastoma) was 3580 nM. The GI50 (SK-N-AS, CNS - Neuroblastoma) was 3540 nM, the IC50 (SK-N-AS, CNS - Neuroblastoma) was 3580 nM and the EC50 (SK-N-DZ, CNS - Neuroblastoma) was 3160 nM. The GI50 (SK-N-DZ, CNS - Neuroblastoma) was 2940 nM, the IC50 (SK-N-DZ, CNS - Neuroblastoma) was 3160 nM and the EC50 (SK-N-FI, CNS - Neuroblastoma) was 7310 nM. For the same compound, the GI50 (SK-N-FI, CNS - Neuroblastoma) was 6320 nM, the IC50 (SK-N-FI, CNS - Neuroblastoma) was 7310 nM and the EC50 [7] was 1580 nM. For the same compound, the GI50 [7] was 1560 nM, the IC50 [7] was 1580 nM and the EC50 (SK-PN-DW, Stomach) was 4660 nM. The GI50 (SK-PN-DW, Stomach) was 4630 nM, the IC50 (SK-PN-DW, Stomach) was 4660 nM and the EC50 [8] was 2230 nM. For the same compound, the GI50 [8] was 2220 nM, the IC50 [8] was 2230 nM and the EC50 (SKO-007, SKO-007, Myeloma) was 990 nM. The GI50 (SKO-007, SKO-007, Myeloma) was 930 nM, the IC50 (SKO-007, SKO-007, Myeloma) was 990 nM and the EC50 (SNB-19, SNB-19, CNS - Glioma) was 1660 nM. The GI50 (SNB-19, SNB-19, CNS - Glioma) was 1650 nM, the IC50 (SNB-19, SNB-19, CNS - Glioma) was 1660 nM and the EC50 (SNU1, SNU-1, Stomach) was 1250 nM. It also gave a GI50 (SNU1, SNU-1, Stomach) of 1250 nM, an IC50 (SNU1, SNU-1, Stomach) of 1250 nM and an EC50 (SNU-5, SNU-5, Stomach) of 3920 nM. It also gave a GI50 (SNU-5, SNU-5, Stomach) of 3870 nM, an IC50 (SNU-5, SNU-5, Stomach) of 3920 nM and an EC50 (SNU-16, SNU-16, Stomach) of 1310 nM. It also gave a GI50 (SNU-16, SNU-16, Stomach) of 1310 nM, an IC50 (SNU-16, SNU-16, Stomach) of 1310 nM and an EC50 (SNU-423, SNU-423, Liver) of 1480 nM. It also gave a GI50 (SNU-423, SNU-423, Liver) of 1460 nM, an IC50 (SNU-423, SNU-423, Liver) of 1490 nM and an EC50 (SR, Lymphoma) of 3800 nM. The GI50 (SR, Lymphoma) was 3800 nM, the IC50 (SR, Lymphoma) was 3800 nM and the EC50 (ST486, ST486, Lymphoma) was 1090 nM. The GI50 (ST486, ST486, Lymphoma) was 1080 nM, the IC50 (ST486, ST486, Lymphoma) was 1090 nM and the EC50 (SU-DHL10, SU-DHL-10, Lymphoma) was 3940 nM. For the same compound, the GI50 (SU-DHL10, SU-DHL-10, Lymphoma) was 3930 nM, the IC50 (SU-DHL10, SU-DHL-10, Lymphoma) was 3940 nM and the EC50 (SU-DHL-4, SU-DHL-4, Lymphoma) was 2010 nM. The GI50 (SU-DHL-4, SU-DHL-4, Lymphoma) was 2010 nM, the IC50 (SU-DHL-4, SU-DHL-4, Lymphoma) was 2010 nM and the EC50 (SU-DHL-5, SU-DHL-5, Lymphoma) was 1200 nM. The GI50 (SU-DHL-5, SU-DHL-5, Lymphoma) was 1190 nM, the IC50 (SU-DHL-5, SU-DHL-5, Lymphoma) was 1200 nM and the EC50 (SU-DHL-8, SU-DHL-8, Lymphoma) was 1770 nM. It also gave a GI50 (SU-DHL-8, SU-DHL-8, Lymphoma) of 1770 nM, an IC50 (SU-DHL-8, SU-DHL-8, Lymphoma) of 1770 nM and an EC50 (SU.86.86, SU.86.86, Pancreas) of 7610 nM. The GI50 (SU.86.86, SU.86.86, Pancreas) was 7580 nM, the IC50 (SU.86.86, SU.86.86, Pancreas) was 7630 nM and the EC50 (SUP-T1, SUP-T1, Lymphoma) was 3960 nM. For the same compound, the GI50 (SUP-T1, SUP-T1, Lymphoma) was 3950 nM, the IC50 (SUP-T1, SUP-T1, Lymphoma) was 3960 nM and the EC50 (SW48, SW48, Colon) was 1330 nM. The GI50 (SW48, SW48, Colon) was 1320 nM, the IC50 (SW48, SW48, Colon) was 1330 nM and the EC50 [9] was 1710 nM. For the same compound, the GI50 [9] was 1690 nM, the IC50 [9] was 1710 nM and the EC50 [10] was 9370 nM. The GI50 [10] was 8280 nM, the IC50 [10] was 9370 nM and the EC50 (SW837, SW837, Colon) was 2350 nM. The GI50 (SW837, SW837, Colon) was 2330 nM and the IC50 (SW837, SW837, Colon) was 2370 nM.
